Data as given in paper PMC5218480 (PLoS ONE, 2017).

Test system: MV-4-11 cells
Test: Gene expression microarray analysis (Affymetrix PrimeView) and GSEA
Assay type: cell-based, human
Design: RFU PODN (11730768_x_at) / Fold change /veh PODN (11730768_x_at) / RFU LINC00158 (11744669_a_at) / Fold change /veh LINC00158 (11744669_a_at) / RFU DUSP10 (11751237_a_at) / Fold change /veh DUSP10 (11751237_a_at) / RFU ID3 (11757404_x_at) / Fold change /veh ID3 (11757404_x_at) / RFU PLEKHG5 (11737974_s_at) / Fold change /veh PLEKHG5 (11737974_s_at) / RFU LRRC4B (11730491_at) / Fold change /veh LRRC4B (11730491_at) / RFU GIMAP4 (11747438_a_at) / Fold change /veh GIMAP4 (11747438_a_at) / RFU KRT8 (11758183_x_at) / Fold change /veh KRT8 (11758183_x_at) / RFU CNN1 (11734310_a_at) / Fold change /veh CNN1 (11734310_a_at) / RFU VPS37D (11726825_at) / Fold change /veh VPS37D (11726825_at) / RFU C10orf10 (11716522_x_at) / Fold change /veh C10orf10 (11716522_x_at) / RFU KIR2DL2 /// KIR2DL4 /// KIR2DL5A /// KIR2DL5B /// KIR2DS1 /// KIR2DS2 /// KIR2DS3 /// KIR2DS4 /// KIR3DL3 /// KIR3DL3 /// KIR3DS1 (11738374_at) / Fold change /veh KIR2DL2 /// KIR2DL4 /// KIR2DL5A /// KIR2DL5B /// KIR2DS1 /// KIR2DS2 /// KIR2DS3 /// KIR2DS4 /// KIR3DL3 /// KIR3DL3 /// KIR3DS1 (11738374_at) / RFU C1QL1 (11718748_at) / Fold change /veh C1QL1 (11718748_at) / RFU TMPRSS4 (11747572_a_at) / Fold change /veh TMPRSS4 (11747572_a_at) / RFU HAMP (11756126_x_at) / Fold change /veh HAMP (11756126_x_at) / RFU RNFT2 (11725882_a_at) / Fold change /veh RNFT2 (11725882_a_at) / RFU NR4A2 (11747474_a_at) / Fold change /veh NR4A2 (11747474_a_at) / RFU ABCC12 (11746883_a_at) / Fold change /veh ABCC12 (11746883_a_at) / RFU TMEM136 (11760407_x_at) / Fold change /veh TMEM136 (11760407_x_at) / RFU CLDN22 /// WWC2 (11732394_at) / Fold change /veh CLDN22 /// WWC2 (11732394_at) / RFU HLA-DPB1 (11760878_x_at) / Fold change /veh HLA-DPB1 (11760878_x_at) / RFU SPINT1 (11716480_a_at) / Fold change /veh SPINT1 (11716480_a_at) / RFU GAP43 (11754022_s_at) / Fold change /veh GAP43 (11754022_s_at) / RFU A4GNT (11735810_at) / Fold change /veh A4GNT (11735810_at) / RFU PRB3 (11715151_x_at) / Fold change /veh PRB3 (11715151_x_at) / RFU TUBB4B (11761932_at) / Fold change /veh TUBB4B (11761932_at) / RFU CAPN14 (11732068_a_at) / Fold change /veh CAPN14 (11732068_a_at) / RFU TMCC2 (11721928_a_at) / Fold change /veh TMCC2 (11721928_a_at) / RFU IRGQ (11745062_a_at) / Fold change /veh IRGQ (11745062_a_at) / RFU FAM174B (11720279_a_at) / Fold change /veh FAM174B (11720279_a_at) / RFU TMPRSS4 (11748680_a_at) / Fold change /veh TMPRSS4 (11748680_a_at) / RFU FAM212B (11763350_a_at) / Fold change /veh FAM212B (11763350_a_at) / RFU PLEKHG5 (11743358_a_at) / Fold change /veh PLEKHG5 (11743358_a_at) / RFU ZSCAN30 (11745921_a_at) / Fold change /veh ZSCAN30 (11745921_a_at) / RFU CMKLR1 (11741424_a_at) / Fold change /veh CMKLR1 (11741424_a_at) / RFU LOC101060620 /// MAPK8IP1 (11723275_at) / Fold change /veh LOC101060620 /// MAPK8IP1 (11723275_at) / RFU SPTSSB (11747773_x_at) / Fold change /veh SPTSSB (11747773_x_at) / RFU PRSS12 (11739890_at) / Fold change /veh PRSS12 (11739890_at) / RFU BIN1 (11741810_x_at) / Fold change /veh BIN1 (11741810_x_at) / RFU WNT11 (11732464_a_at) / Fold change /veh WNT11 (11732464_a_at) / RFU C10orf10 (11716521_a_at) / Fold change /veh C10orf10 (11716521_a_at) / RFU C5orf56 (11738089_at) / Fold change /veh C5orf56 (11738089_at) / RFU CYB561 (11721691_x_at) / Fold change /veh CYB561 (11721691_x_at) / RFU ANKRD19P (11752326_a_at) / Fold change /veh ANKRD19P (11752326_a_at) / RFU OR2T12 /// OR2T33 /// OR2T8 (11738714_s_at) / Fold change /veh OR2T12 /// OR2T33 /// OR2T8 (11738714_s_at) / RFU VCAN (11748164_a_at) / Fold change /veh VCAN (11748164_a_at) / RFU JSRP1 (11732532_at) / Fold change /veh JSRP1 (11732532_at) / RFU KRTAP10-11 (11738290_x_at) / Fold change /veh KRTAP10-11 (11738290_x_at) / RFU MYO3A (11730013_a_at) / Fold change /veh MYO3A (11730013_a_at) / RFU EBF3 (11725865_a_at) / Fold change /veh EBF3 (11725865_a_at) / RFU CAMK2N1 (11719241_x_at) / Fold change /veh CAMK2N1 (11719241_x_at) / RFU C5orf56 (11738088_a_at) / Fold change /veh C5orf56 (11738088_a_at) / RFU OLFML3 (11715873_a_at) / Fold change /veh OLFML3 (11715873_a_at) / RFU LOC100653217 /// NTM (11731650_a_at) / Fold change /veh LOC100653217 /// NTM (11731650_a_at) / RFU MAPK11 (11762145_a_at) / Fold change /veh MAPK11 (11762145_a_at) / RFU FIZ1 (11724087_x_at) / Fold change /veh FIZ1 (11724087_x_at) / RFU OASL (11726364_x_at) / Fold change /veh OASL (11726364_x_at) / RFU SOX15 (11748057_x_at) / Fold change /veh SOX15 (11748057_x_at) / RFU CD79A (11719716_a_at) / Fold change /veh CD79A (11719716_a_at) / RFU HIST1H1D (11736915_at) / Fold change /veh HIST1H1D (11736915_at) / RFU CASKIN2 (11723855_a_at) / Fold change /veh CASKIN2 (11723855_a_at) / RFU LOC730098 (11760151_x_at) / Fold change /veh LOC730098 (11760151_x_at) / RFU OR4N2 (11742367_at) / Fold change /veh OR4N2 (11742367_at) / RFU PRRT2 (11749266_a_at) / Fold change /veh PRRT2 (11749266_a_at) / RFU SNX32 (11753110_a_at) / Fold change /veh SNX32 (11753110_a_at) / RFU CDHR5 (11726645_a_at) / Fold change /veh CDHR5 (11726645_a_at) / RFU RCAN1 (11760418_a_at) / Fold change /veh RCAN1 (11760418_a_at) / RFU FAM167A (11723789_a_at) / Fold change /veh FAM167A (11723789_a_at) / RFU FAM26E (11764081_at) / Fold change /veh FAM26E (11764081_at) / RFU ISYNA1 (11749810_s_at) / Fold change /veh ISYNA1 (11749810_s_at) / RFU ACY1 (11761880_at) / Fold change /veh ACY1 (11761880_at) / RFU 11764098_at / Fold change /veh 11764098_at / RFU SAMD14 (11745864_x_at) / Fold change /veh SAMD14 (11745864_x_at) / RFU NPB (11741838_a_at) / Fold change /veh NPB (11741838_a_at) / RFU TMPRSS6 (11731388_a_at) / Fold change /veh TMPRSS6 (11731388_a_at) / RFU KRTAP10-2 (11738614_at) / Fold change /veh KRTAP10-2 (11738614_at) / RFU ARHGAP8 /// PRR5-ARHGAP8 (11727945_x_at) / Fold change /veh ARHGAP8 /// PRR5-ARHGAP8 (11727945_x_at) / RFU KRTAP5-7 /// NADSYN1 (11734609_at) / Fold change /veh KRTAP5-7 /// NADSYN1 (11734609_at) / RFU RASL12 (11751679_a_at) / Fold change /veh RASL12 (11751679_a_at) / RFU CDKN2B (11736163_a_at) / Fold change /veh CDKN2B (11736163_a_at) / RFU PRF1 (11729649_at) / Fold change /veh PRF1 (11729649_at) / RFU, ZNF638 /// ZNF638-IT1 / Fold change vs veh, ZNF638 /// ZNF638-IT1 / RFU, PANK3 / Fold change vs veh, PANK3 / RFU, SH3YL1 / Fold change vs veh, SH3YL1 / RFU, ZEB2 / Fold change vs veh, ZEB2 / RFU, NRIP1 / Fold change vs veh, NRIP1 / RFU, PTTG1IP / Fold change vs veh, PTTG1IP / RFU, CAPN2 / Fold change vs veh, CAPN2 / RFU, MED14 / Fold change vs veh, MED14 / RFU, SNORA58 / Fold change vs veh, SNORA58 / RFU, C1orf63 / Fold change vs veh, C1orf63 / RFU, LRRFIP1 / Fold change vs veh, LRRFIP1 / RFU, NDUFAF7 / Fold change vs veh, NDUFAF7 / RFU, SLC12A2 / Fold change vs veh, SLC12A2 / RFU, IBTK / Fold change vs veh, IBTK / RFU, ESF1 / Fold change vs veh, ESF1 / Fold change vs veh, TMEM50B / RFU, TAOK1 / Fold change vs veh, TAOK1 / RFU, ACBD3 / Fold change vs veh, ACBD3 / RFU, TMA16 / Fold change vs veh, TMA16 / RFU, RWDD3 / Fold change vs veh, RWDD3 / RFU, BCAT1 / Fold change vs veh, BCAT1 / RFU, EDEM3 / Fold change vs veh, EDEM3 / RFU, TMEM33 / Fold change vs veh, TMEM33 / RFU, WDR75 / Fold change vs veh, WDR75 / RFU, AHCTF1 / Fold change vs veh, AHCTF1 / RFU, TFRC / Fold change vs veh, TFRC / RFU, ZDHHC17 / Fold change vs veh, ZDHHC17 / RFU, NOM1 / Fold change vs veh, NOM1 / RFU, ARL8B / Fold change vs veh, ARL8B / RFU, ZBTB11 / Fold change vs veh, ZBTB11 / RFU, TAMM41 / Fold change vs veh, TAMM41 / RFU, KIAA1704 /// LOC100996395 / Fold change vs veh, KIAA1704 /// LOC100996395 / RFU, ING1 / Fold change vs veh, ING1 / RFU, TRMT61B / Fold change vs veh, TRMT61B / RFU, FUBP3 / Fold change vs veh, FUBP3 / RFU, TP53 / Fold change vs veh, TP53 / RFU, TNKS2 / Fold change vs veh, TNKS2 / RFU, ZFP14 / Fold change vs veh, ZFP14 / RFU, ACTR2 / Fold change vs veh, ACTR2 / RFU, PPP3R1 / Fold change vs veh, PPP3R1 / RFU, PIK3R1 / Fold change vs veh, PIK3R1 / RFU, HNRNPA1 / Fold change vs veh, HNRNPA1 / RFU, RNF170 / Fold change vs veh, RNF170 / RFU, ZNF28 / Fold change vs veh, ZNF28 / RFU, RNGTT / Fold change vs veh, RNGTT / RFU, OGT / Fold change vs veh, OGT / RFU, BRD1 / Fold change vs veh, BRD1 / RFU, MARS / Fold change vs veh, MARS / RFU, ZNF655 / Fold change vs veh, ZNF655 / RFU, FAHD1 / Fold change vs veh, FAHD1 / RFU, BDP1 / Fold change vs veh, BDP1 / RFU, LRRCC1 / Fold change vs veh, LRRCC1 / RFU, ARID1A / Fold change vs veh, ARID1A / RFU, ZNF146 / Fold change vs veh, ZNF146 / RFU, ZNF330 / Fold change vs veh, ZNF330 / RFU, GPN3 / Fold change vs veh, GPN3 / RFU, C9orf123 / Fold change vs veh, C9orf123 / RFU, N4BP2L2 / Fold change vs veh, N4BP2L2 / RFU, ARFIP1 / Fold change vs veh, ARFIP1 / RFU, FAM179B / Fold change vs veh, FAM179B / RFU, BCL10 / Fold change vs veh, BCL10 / RFU, UHRF1BP1L / Fold change vs veh, UHRF1BP1L / RFU, BET1 / Fold change vs veh, BET1 / RFU, CNOT2 / Fold change vs veh, CNOT2 / RFU, ZNF268 / Fold change vs veh, ZNF268 / Fold change vs veh, ZNF507 / RFU, DGCR2 / Fold change vs veh, DGCR2 / RFU, WDSUB1 / Fold change vs veh, WDSUB1 / Fold change vs veh, HSP90B1 /// MIR3652 / RFU, ADSS / Fold change vs veh, ADSS / RFU, GK / Fold change vs veh, GK / RFU, ZNF148 / Fold change vs veh, ZNF148 / RFU, TAF9 / Fold change vs veh, TAF9 / RFU, SLC1A5 / Fold change vs veh, SLC1A5 / RFU, SLMO2 / Fold change vs veh, SLMO2 / RFU, ABCC4 / Fold change vs veh, ABCC4 / RFU, LOC101060439 /// RAP1B / Fold change vs veh, LOC101060439 /// RAP1B / RFU, RFX7 / Fold change vs veh, RFX7 / RFU, GTPBP10 / Fold change vs veh, GTPBP10 / RFU, CNEP1R1 / Fold change vs veh, CNEP1R1 / RFU, BIVM-ERCC5 /// ERCC5 / Fold change vs veh, BIVM-ERCC5 /// ERCC5 / RFU, ILF3 / Fold change vs veh, ILF3 / RFU 11762660_at / Fold change /veh 11762660_at / RFU VCAN (11757783_s_at) / Fold change /veh VCAN (11757783_s_at) / RFU DDX43 (11728927_at) / Fold change /veh DDX43 (11728927_at) / RFU KRT8 (11758188_x_at) / Fold change /veh KRT8 (11758188_x_at) / RFU NKD1 (11759106_at) / Fold change /veh NKD1 (11759106_at) / RFU SRD5A1 (11742802_a_at) / Fold change /veh SRD5A1 (11742802_a_at) / RFU TPSAB1 /// TPSB2 (11721975_s_at) / Fold change /veh TPSAB1 /// TPSB2 (11721975_s_at) / RFU GSTM3 (11746129_a_at) / Fold change /veh GSTM3 (11746129_a_at) / RFU IL23R (11737362_x_at) / Fold change /veh IL23R (11737362_x_at) / RFU TMEM51 (11727254_a_at) / Fold change /veh TMEM51 (11727254_a_at) / RFU PIWIL2 (11732686_x_at) / Fold change /veh PIWIL2 (11732686_x_at) / RFU ORM1 (11744905_x_at) / Fold change /veh ORM1 (11744905_x_at) / RFU CCDC152 (11743942_at) / Fold change /veh CCDC152 (11743942_at) / RFU ECM1 (11717891_a_at) / Fold change /veh ECM1 (11717891_a_at) / RFU IL23R (11748794_a_at) / Fold change /veh IL23R (11748794_a_at) / RFU TNFAIP8L3 (11732012_x_at) / Fold change /veh TNFAIP8L3 (11732012_x_at) / RFU MBOAT4 (11741988_at) / Fold change /veh MBOAT4 (11741988_at) / RFU 11764193_at / Fold change /veh 11764193_at / RFU TMEM53 (11763286_at) / Fold change /veh TMEM53 (11763286_at) / RFU MAGEB2 (11727129_at) / Fold change /veh MAGEB2 (11727129_at) / RFU TMEM200A (11744735_a_at) / Fold change /veh TMEM200A (11744735_a_at) / RFU CCDC152 (11751479_a_at) / Fold change /veh CCDC152 (11751479_a_at) / RFU FAM211A (11726209_a_at) / Fold change /veh FAM211A (11726209_a_at) / RFU RGS16 (11746705_a_at) / Fold change /veh RGS16 (11746705_a_at) / RFU VCAN (11755009_s_at) / Fold change /veh VCAN (11755009_s_at) / RFU RHOB (11743442_s_at) / Fold change /veh RHOB (11743442_s_at) / RFU RGS16 (11720943_a_at) / Fold change /veh RGS16 (11720943_a_at) / RFU RGS16 (11720944_at) / Fold change /veh RGS16 (11720944_at) / RFU, VPS4B / Fold change vs veh, VPS4B / RFU, CREB1 / Fold change vs veh, CREB1 / RFU, DNAJC13 / Fold change vs veh, DNAJC13 / RFU, GNAQ / Fold change vs veh, GNAQ / RFU, CDK5R1 / Fold change vs veh, CDK5R1 / RFU, ZRANB3 / Fold change vs veh, ZRANB3 / RFU, CUL4A / Fold change vs veh, CUL4A / RFU, CCNY / Fold change vs veh, CCNY / RFU, UFL1 / Fold change vs veh, UFL1 / RFU, COG3 / Fold change vs veh, COG3 / RFU, DIAPH2 / Fold change vs veh, DIAPH2 / RFU, SKA2 / Fold change vs veh, SKA2 / RFU, AFF3 / Fold change vs veh, AFF3 / RFU, LMF1 / Fold change vs veh, LMF1 / RFU, IPO11 / Fold change vs veh, IPO11 / RFU, DFFB / Fold change vs veh, DFFB / RFU, FOXP1 / Fold change vs veh, FOXP1 / RFU, CARD8 / Fold change vs veh, CARD8 / RFU, STRN3 / Fold change vs veh, STRN3 / RFU, ADK / Fold change vs veh, ADK / RFU, RASSF2 / Fold change vs veh, RASSF2 / RFU, WIPF1 / Fold change vs veh, WIPF1 / RFU, LARP1B / Fold change vs veh, LARP1B / RFU, RASA1 / Fold change vs veh, RASA1 / RFU, RB1 / Fold change vs veh, RB1 / RFU, PPFIA1 / Fold change vs veh, PPFIA1 / RFU, MAT2A / Fold change vs veh, MAT2A / RFU, CCT5 / Fold change vs veh, CCT5 / RFU, WDR92 / Fold change vs veh, WDR92 / RFU, CUX1 / Fold change vs veh, CUX1 / RFU, TTC7A / Fold change vs veh, TTC7A / RFU, TMEM135 / Fold change vs veh, TMEM135 / RFU, DEPTOR / Fold change vs veh, DEPTOR / RFU, CPM / Fold change vs veh, CPM / RFU, DNAJB6 / Fold change vs veh, DNAJB6 / RFU, CACNA2D3 / Fold change vs veh, CACNA2D3 / RFU, DTX4 / Fold change vs veh, DTX4 / RFU, TFCP2 / Fold change vs veh, TFCP2 / RFU, GMCL1 /// GMCL1P1 / Fold change vs veh, GMCL1 /// GMCL1P1 / RFU, AEBP2 / Fold change vs veh, AEBP2 / RFU, SNHG1 /// SNORD22 /// SNORD25 /// SNORD26 /// SNORD27 /// SNORD28 /// SNORD29 /// SNORD31 / Fold change vs veh, SNHG1 /// SNORD22 /// SNORD25 /// SNORD26 /// SNORD27 /// SNORD28 /// SNORD29 /// SNORD31 / Fold change (Aza/veh), C12orf56 (ProbeSet 11735607_a_at) / Fold change (ACY-1035/veh), C12orf56 (ProbeSet 11735607_a_at) / Fold change (Aza/veh), FGFR1OP (ProbeSet 11751329_s_at) / Fold change (ACY-1035/veh), FGFR1OP (ProbeSet 11751329_s_at) / Fold change (Aza/veh), VPS36 (ProbeSet 11739960_a_at) / Fold change (ACY-1035/veh), VPS36 (ProbeSet 11739960_a_at) / RFU SYPL1 (11715823_x_at) / Fold change /veh SYPL1 (11715823_x_at) / RFU IGFBP7 (11715501_s_at) / Fold change /veh IGFBP7 (11715501_s_at) / RFU REEP3 (11722064_at) / Fold change /veh REEP3 (11722064_at) / RFU IGLL1 (11728026_x_at) / Fold change /veh IGLL1 (11728026_x_at): dose or concentration left out as unconfirmed
Settings: MV-4-11 cells, 48 hours

Structure (SMILES): Nc1ncn([C@@H]2O[C@H](CO)[C@@H](O)[C@H]2O)c(=O)n1 [azacitidine]
- RFU FIZ1 (11724087_x_at): 32.14 RFU
